{"source": "patent US20110092423A1", "about": "“INHIBITORS OF Akt ACTIVITY” (GlaxoSmithKline, LLC, priority 2008, published 2011)", "target": "T1, full length AKT1 (Homo sapiens, UniProt P31749)", "T1 construct": "Full-length human AKT1 gene was amplified by PCR; His tag (from vector pFastbacHTb; purified on Nickel Sepharose) (N); made in house; host or cells: baculovirus; Sf9 / T. ni insect cells", "T1 sequence (P31749 whole entry)": "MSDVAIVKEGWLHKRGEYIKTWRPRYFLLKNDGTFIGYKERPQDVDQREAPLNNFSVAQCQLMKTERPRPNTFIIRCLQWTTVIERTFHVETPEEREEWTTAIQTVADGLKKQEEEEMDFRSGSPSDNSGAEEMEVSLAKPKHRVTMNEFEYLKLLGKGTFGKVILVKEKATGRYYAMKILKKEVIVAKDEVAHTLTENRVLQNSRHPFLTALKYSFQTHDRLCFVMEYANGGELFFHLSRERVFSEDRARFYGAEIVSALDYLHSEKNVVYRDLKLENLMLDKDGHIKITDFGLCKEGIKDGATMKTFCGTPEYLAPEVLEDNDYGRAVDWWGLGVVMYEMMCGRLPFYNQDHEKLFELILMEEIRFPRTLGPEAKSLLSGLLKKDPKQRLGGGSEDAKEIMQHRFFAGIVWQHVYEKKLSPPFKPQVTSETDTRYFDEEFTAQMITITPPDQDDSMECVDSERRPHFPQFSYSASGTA", "experiment": "Full-length AKT enzyme assay (substrate phosphorylation, SPA)", "format": "biochemical", "conditions": "in at least one experimental run; pIC50 = -log(IC50), IC50 in molar units; 4 uM ATP, 10 nM enzyme; read-out: pIC50 value against full length AKT1 (converted)", "from_the_text": "Cloning of Full-Length Human (FL) AKT1:\nFull-length human AKT1 gene was amplified by PCR from a plasmid containing myristylated-AKT1-ER (gift from Robert T. Abraham, Duke University under MTA, described in Klippel et al. in Molecular and Cellular Biology 1998 Volume 18 p. 5699) using the 5′ primer: SEQ. ID NO: 2 5′ […] 3′ and the 3′ primer: SEQ. ID NO: 3 […] 3′. The 5′ primer included a BamHI site and the 3′ primer included an XhoI site for cloning purposes. The resultant PCR product was subcloned in pcDNA3 as a BamHI/XhoI fragment. […]\nCompounds of the present invention were tested for AKT 1, 2, and 3 protein serine kinase inhibitory activity in substrate phosphorylation assays. […] Substrate phosphorylation was detected by the following procedure.\nAssays were performed in 384 well U-bottom white plates. […] The reaction was stopped by the addition of 50 ul SPA bead mix (Dulbecco's PBS without Mg^2+ and Ca^2+, 0.1% Triton X-100, 5 mM EDTA, 50 uM ATP, 2.5 mg/ml Streptavidin-coated SPA beads.) The plate was sealed, the beads were allowed to settle overnight, and then the plate was counted in a Packard Topcount Microplate Scintillation Counter (Packard Instrument Co., Meriden, Conn.). […]"}
{"smiles": "Cn1ncc(Cl)c1-c1ncc(C(=O)N[C@H](CN)Cc2cccc(F)c2)s1", "note": "[Example 2, N-{(1S)-2-amino-1-[(3-fluorophenyl)methyl]ethyl}-2-(4-chloro-1-methyl-1H-pyrazol-5-yl)-1,3-thiazole-5-carboxamide]", "values": [{"measurement": "IC50", "value": 10, "unit": "nM"}]}
